Assay results: ChEMBL document CHEMBL1201862, “PubChem BioAssay data set” (2004)
Active and inactive are the calls of the source.

Key:
[1] = system: BJ; assay: BJ-TERT fibroblast viability loss – cell-based, RAS-independent, luminescence, dose response (AID 1933); assay type: functional; details: Homo sapiens
[2] = system: Jurkat; assay: blockers of NF-kB activation in T cells – Jurkat, luciferase reporter, luminescence, B- and T-cell, dose response (AID 489004); assay type: functional, cell-based; details: Homo sapiens;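 further: NF-kB luciferase reporter Jurkat cells stimulated with PMA plus ionomycin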
[3] = molecular target: Beta-2 adrenergic receptor (Homo sapiens, UniProt P07550); assay: ADRB2 activation measured by internalization – cell-based, FAP fluorogen, flow cytometry, cherry pick 1, dose response (AID 588763); assay type: functional
Sequence of Beta-2 adrenergic receptor (P07550 whole entry): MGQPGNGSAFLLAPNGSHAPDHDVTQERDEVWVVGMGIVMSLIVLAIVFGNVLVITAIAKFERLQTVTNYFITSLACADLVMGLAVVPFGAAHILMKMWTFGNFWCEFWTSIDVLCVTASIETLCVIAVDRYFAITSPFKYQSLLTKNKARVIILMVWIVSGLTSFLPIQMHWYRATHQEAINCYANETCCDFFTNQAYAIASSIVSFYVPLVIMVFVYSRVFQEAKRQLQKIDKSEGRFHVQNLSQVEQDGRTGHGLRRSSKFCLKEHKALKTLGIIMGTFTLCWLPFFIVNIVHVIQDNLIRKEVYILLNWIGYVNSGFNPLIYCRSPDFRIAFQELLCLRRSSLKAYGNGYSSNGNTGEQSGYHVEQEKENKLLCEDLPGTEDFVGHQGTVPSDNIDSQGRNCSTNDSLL

[4] = system: BJ; assay: BJ-TERT-LT-ST fibroblast viability loss – cell-based, RAS-independent, luminescence, dose response (AID 1935); assay type: functional; details: Homo sapiens;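 further: BJ fibroblasts immortalized with TERT plus LT and ST oncogenes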
[5] = DRD fibroblast viability loss – cell-based, non-viral oncogenic, luminescence, dose response (AID 1934); assay type: functional; details: Homo sapiens
[6] = system: BJ; assay: cells; assay type: functional, cell-based; details: Homo sapiens
[7] = HEK-293T viability loss, compound-treated – cell-based, uHTS hits, cytotoxicity control for B/T-cell NF-kB inhibitor project, dose response (AID 489019); assay type: functional;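 further: IC50 reflects cytotoxicity as loss of cell viability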
[8] = system: BJ; assay: growth inhibition of engineered Ras-driven BJ cells – cell-based, alamar blue fluorescence, cherrypicked samples, dose response (AID 2631); assay type: functional; details: Homo sapiens;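 further: confirmatory dose-response assay in RAS-dependent BJ fibroblasts engineered with TERT, LT and ST, with cytotoxicity read by fluorescence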
[9] = molecular target: T1, Ubiquitin-conjugating enzyme E2 N (Homo sapiens, UniProt P61088); assay type: functional
T1 sequence (P61088 whole entry): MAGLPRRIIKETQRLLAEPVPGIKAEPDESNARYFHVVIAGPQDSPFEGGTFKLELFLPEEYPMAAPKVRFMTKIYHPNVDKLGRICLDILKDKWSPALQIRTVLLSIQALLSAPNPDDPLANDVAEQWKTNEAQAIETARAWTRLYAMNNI

[10] = luciferase reporter signal suppression in cells – H4 neuroglioma cells, luminescence, dose response (AID 1990); assay type: functional, cell-based
[11] = system: Streptococcus; assay: GAS UMAA2166 growth inhibition – luminescence, BacTiterGlo, counter-screen for streptokinase expression inhibitor project, dose response (AID 1915); assay type: functional, organism-based;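 further: potency for reduction of bacterial viability or growth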
[12] = molecular target: T2, Rac GTPase-activating protein 1 (Homo sapiens, UniProt Q9H0H5); assay: blockers of MgcRacGAP-driven Rac1 GTP hydrolysis – biochemical, ADP Hunter fluorescence, primary and confirmatory, confirmation (AID 624330); assay type: functional
T2 sequence (Q9H0H5 whole entry): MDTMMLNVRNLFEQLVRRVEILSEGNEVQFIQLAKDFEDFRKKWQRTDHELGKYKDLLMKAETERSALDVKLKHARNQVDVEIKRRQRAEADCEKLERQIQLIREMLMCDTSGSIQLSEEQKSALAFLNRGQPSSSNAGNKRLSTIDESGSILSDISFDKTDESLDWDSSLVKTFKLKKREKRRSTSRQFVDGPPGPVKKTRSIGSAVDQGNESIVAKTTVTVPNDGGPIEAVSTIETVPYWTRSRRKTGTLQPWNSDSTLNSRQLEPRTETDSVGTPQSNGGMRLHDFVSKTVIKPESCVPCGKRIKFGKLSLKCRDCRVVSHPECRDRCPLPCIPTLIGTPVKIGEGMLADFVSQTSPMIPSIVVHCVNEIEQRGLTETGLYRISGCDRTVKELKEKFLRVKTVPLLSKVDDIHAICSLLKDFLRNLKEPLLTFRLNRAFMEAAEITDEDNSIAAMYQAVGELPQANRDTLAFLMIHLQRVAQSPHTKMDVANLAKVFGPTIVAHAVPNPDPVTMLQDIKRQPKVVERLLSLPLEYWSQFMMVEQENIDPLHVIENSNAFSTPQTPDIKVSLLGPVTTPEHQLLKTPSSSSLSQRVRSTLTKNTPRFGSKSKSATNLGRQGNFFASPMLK

[13] = system: HEK293; assay: EBV LMP1 TES2 canonical NF-kB signalling blockers – cell-based, HEK293, luciferase, cherry-pick, dose response (AID 588343); assay type: functional, Homo sapiens; details: Homo sapiens, HEK293
[14] = reduction of Shn3 3'UTR-driven luciferase in osteoblasts – cell-based, Clone20 osteoblasts, firefly luciferase, cherry-picked, dose response (AID 624132); assay type: functional;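 further: firefly luciferase luminescence from reporter carrying the Shn3 3'UTR in osteoblasts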
[15] = system: HEK293; assay: cells; assay type: functional, cell-based; details: Homo sapiens
[16] = viability loss in HeLa cells – cytotoxicity control for MgcRacGAP inhibitor project, dose response (AID 624300); assay type: functional
[17] = system: HEK293; assay: cells; assay type: functional, cell-based; details: Homo sapiens; remark: listed apart in the source
[18] = non-specific 3'UTR reporter inhibition in Clone20-Shn3RL – cell-based, Renilla luciferase, cherry-picked, counter-screen for Shn3 inhibitor project, dose response (AID 624133); assay type: functional
[19] = microbe, parasite or virus in culture; assay type: functional; details: Mycobacterium tuberculosis
[20] = molecular target: T3, Streptokinase A (Streptococcus pyogenes serotype M1, UniProt P10520); assay: viability-normalized secreted streptokinase activity reduction – plasminogen activation absorbance, OD405, dose response (AID 1914); assay type: functional, Streptococcus pyogenes M1 GAS;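 further: secreted streptokinase activity via plasminogen activation per viability signal from cell pellet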
T3 sequence (P10520 whole entry): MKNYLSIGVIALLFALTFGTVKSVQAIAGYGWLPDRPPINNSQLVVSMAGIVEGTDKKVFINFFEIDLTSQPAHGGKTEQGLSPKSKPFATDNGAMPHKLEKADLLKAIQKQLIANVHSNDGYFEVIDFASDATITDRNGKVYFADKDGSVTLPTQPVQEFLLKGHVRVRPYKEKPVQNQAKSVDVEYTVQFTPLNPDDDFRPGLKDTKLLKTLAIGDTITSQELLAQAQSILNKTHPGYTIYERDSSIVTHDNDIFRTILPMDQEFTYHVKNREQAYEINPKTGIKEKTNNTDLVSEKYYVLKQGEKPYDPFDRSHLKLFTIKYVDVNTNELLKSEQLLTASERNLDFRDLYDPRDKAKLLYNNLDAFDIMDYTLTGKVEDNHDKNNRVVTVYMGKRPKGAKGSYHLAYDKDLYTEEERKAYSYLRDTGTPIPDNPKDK

[21] = molecular target: T4, Bcl-2-related protein A1 (Mus musculus, UniProt Q07440); assay type: functional;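 further: confirmatory dose–response counterscreen on Bfl-1, used to check hits from a UBC13 polyubiquitin inhibitor campaign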
T4 sequence (Q07440 whole entry): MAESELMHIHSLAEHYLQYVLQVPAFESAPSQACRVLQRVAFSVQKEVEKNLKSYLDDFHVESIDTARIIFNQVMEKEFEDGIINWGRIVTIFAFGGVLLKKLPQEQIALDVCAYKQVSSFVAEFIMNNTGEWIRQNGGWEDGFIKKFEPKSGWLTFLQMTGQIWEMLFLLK

[22] = molecular target: Dual specificity protein kinase CLK1 (Homo sapiens, UniProt P49759); assay: inhibition of human CLK1 activity – biochemical, cherry-picked samples, selectivity assay for Dyrk1A inhibitor project, dose response (AID 588811)
Sequence of Dual specificity protein kinase CLK1 (P49759 whole entry): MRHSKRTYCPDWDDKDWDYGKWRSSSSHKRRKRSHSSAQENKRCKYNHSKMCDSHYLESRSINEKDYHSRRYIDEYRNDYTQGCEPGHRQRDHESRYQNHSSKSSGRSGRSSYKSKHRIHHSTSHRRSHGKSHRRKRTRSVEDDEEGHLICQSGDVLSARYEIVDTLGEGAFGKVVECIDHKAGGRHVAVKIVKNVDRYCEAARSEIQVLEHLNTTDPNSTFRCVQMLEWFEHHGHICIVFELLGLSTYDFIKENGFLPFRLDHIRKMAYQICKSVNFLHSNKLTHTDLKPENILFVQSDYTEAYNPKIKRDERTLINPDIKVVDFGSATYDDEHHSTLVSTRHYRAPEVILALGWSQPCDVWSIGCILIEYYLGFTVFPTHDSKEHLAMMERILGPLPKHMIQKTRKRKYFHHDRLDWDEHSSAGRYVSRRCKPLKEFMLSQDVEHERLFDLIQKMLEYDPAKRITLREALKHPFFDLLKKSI

[23] = molecular target: Dual specificity tyrosine-phosphorylation-regulated kinase 1A (Rattus norvegicus, UniProt Q63470); assay type: biochemical, Homo sapiens
[24] = loss of viability in HepG2 cells – cell-based, CellTiter-Glo, cherry-picked, cytotoxicity control for Shn3 inhibitor project, dose response (AID 624134); assay type: functional
[25] = molecular target: T1, Ubiquitin-conjugating enzyme E2 N; assay type: functional; remark: listed apart in the source
[26] = system: Streptococcus sp. 'group A'; assay: Streptococcus pyogenes SK(-)GAS viability under kanamycin – luminescence, BacTiterGlo, confirmation, counter-screen for streptokinase expression inhibitor project, dose response (AID 1900); assay type: functional, organism-based
[27] = molecular target: Hepatocyte nuclear factor 4-alpha (Homo sapiens, UniProt P41235); assay type: functional, cell-based;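 further: biochemical luminescence-based dose-response counterscreen measuring inhibition of HNF4 dimerization, run alongside a screen for blockers of ABHD5–perilipin-5 interaction; split luciferase complementation of HNF4 fusion proteins in cell lysate measuring dimerization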
Sequence of Hepatocyte nuclear factor 4-alpha (P41235 whole entry, the tested form may be a part): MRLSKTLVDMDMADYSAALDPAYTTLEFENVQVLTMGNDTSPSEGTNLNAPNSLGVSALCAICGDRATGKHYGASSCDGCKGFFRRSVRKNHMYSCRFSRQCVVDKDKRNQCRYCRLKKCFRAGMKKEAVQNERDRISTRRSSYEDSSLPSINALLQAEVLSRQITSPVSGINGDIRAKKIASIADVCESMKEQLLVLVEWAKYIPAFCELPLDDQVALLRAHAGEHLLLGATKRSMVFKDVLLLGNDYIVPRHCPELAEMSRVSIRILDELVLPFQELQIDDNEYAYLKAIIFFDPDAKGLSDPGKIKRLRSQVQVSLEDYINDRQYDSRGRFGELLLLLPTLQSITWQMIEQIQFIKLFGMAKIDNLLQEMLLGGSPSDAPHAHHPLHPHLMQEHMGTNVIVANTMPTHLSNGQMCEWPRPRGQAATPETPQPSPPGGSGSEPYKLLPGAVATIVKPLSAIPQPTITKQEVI

[28] = system: HEK293; assay: inhibition of NOD1-driven NF-kB reporter – cell-based, luminescence, uHTS, primary screen (AID 1578); assay type: functional; details: Homo sapiens
[29] = molecular target: T5, Mannose-6-phosphate isomerase (Homo sapiens, UniProt P34949); assay: phosphomannose isomerase inhibition – biochemical, fluorescence intensity, confirmation (AID 1535)
T5 sequence (P34949 whole entry): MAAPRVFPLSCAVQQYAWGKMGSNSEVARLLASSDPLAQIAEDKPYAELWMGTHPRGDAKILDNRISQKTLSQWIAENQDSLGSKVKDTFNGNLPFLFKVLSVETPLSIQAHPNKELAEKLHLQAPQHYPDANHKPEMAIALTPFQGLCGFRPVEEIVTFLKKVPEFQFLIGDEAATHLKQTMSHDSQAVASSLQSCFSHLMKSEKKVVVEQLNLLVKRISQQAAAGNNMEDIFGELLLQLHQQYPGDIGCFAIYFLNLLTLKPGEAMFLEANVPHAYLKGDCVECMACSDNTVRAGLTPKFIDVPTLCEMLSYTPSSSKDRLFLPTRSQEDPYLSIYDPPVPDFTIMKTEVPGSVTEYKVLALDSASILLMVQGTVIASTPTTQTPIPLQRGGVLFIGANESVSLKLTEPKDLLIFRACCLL

[30] = molecular target: Phosphomannomutase 2 (Homo sapiens, UniProt O15305); assay: Counter screen SAR assay for PMM2 inhibitors via a fluorescence intensity assay. [Related pubchem assays (depositor defined):AID1545, AID1574]
Sequence of Phosphomannomutase 2 (O15305 whole entry): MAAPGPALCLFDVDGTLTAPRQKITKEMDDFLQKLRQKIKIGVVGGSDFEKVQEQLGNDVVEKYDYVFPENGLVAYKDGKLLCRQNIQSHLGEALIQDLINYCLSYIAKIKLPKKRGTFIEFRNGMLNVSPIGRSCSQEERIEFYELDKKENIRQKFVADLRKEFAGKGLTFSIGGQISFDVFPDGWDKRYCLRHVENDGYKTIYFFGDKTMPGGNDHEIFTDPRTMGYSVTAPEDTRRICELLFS

[31] = molecular target: Cytochrome P450 3A4 (Homo sapiens, UniProt P08684);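 further: CYP3A4 tested as one member of a cytochrome P450 panel screen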
Sequence of Cytochrome P450 3A4 (P08684 whole entry): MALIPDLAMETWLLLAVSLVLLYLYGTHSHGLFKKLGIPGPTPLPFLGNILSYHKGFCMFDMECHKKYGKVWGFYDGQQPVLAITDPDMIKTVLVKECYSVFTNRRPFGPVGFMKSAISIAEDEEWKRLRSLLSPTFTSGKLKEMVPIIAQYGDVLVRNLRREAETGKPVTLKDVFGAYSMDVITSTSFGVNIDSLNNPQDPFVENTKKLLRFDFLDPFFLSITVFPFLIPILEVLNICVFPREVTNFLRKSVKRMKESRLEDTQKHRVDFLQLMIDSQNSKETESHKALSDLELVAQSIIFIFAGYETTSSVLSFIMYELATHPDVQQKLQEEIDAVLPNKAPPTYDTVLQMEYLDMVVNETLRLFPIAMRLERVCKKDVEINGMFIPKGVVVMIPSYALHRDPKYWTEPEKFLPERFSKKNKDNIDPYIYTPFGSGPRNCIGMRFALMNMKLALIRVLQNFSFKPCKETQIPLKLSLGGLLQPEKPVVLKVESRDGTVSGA

[32] = molecular target: T6, Cytochrome P450 1A2 (Homo sapiens, UniProt P05177);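 further: PubChem cytochrome P450 panel assay, CYP1A2 panel member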
T6 sequence (P05177 whole entry): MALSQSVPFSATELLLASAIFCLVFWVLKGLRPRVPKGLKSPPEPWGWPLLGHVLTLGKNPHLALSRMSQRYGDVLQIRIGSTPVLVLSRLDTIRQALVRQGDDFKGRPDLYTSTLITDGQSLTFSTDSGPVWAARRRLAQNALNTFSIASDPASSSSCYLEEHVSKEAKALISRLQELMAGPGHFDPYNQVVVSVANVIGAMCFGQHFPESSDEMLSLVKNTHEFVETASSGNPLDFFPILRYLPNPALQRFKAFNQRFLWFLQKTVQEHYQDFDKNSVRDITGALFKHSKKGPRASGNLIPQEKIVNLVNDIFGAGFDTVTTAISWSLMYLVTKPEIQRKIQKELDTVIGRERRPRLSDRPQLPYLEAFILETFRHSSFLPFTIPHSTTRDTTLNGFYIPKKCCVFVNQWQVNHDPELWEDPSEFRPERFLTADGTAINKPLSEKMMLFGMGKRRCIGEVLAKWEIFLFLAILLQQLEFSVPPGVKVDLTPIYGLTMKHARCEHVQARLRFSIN

[33] = molecular target: Cytochrome P450 2D6 (Homo sapiens, UniProt P10635);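 further: CYP2D6 member of a cytochrome P450 panel assay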
Sequence of Cytochrome P450 2D6 (P10635 whole entry): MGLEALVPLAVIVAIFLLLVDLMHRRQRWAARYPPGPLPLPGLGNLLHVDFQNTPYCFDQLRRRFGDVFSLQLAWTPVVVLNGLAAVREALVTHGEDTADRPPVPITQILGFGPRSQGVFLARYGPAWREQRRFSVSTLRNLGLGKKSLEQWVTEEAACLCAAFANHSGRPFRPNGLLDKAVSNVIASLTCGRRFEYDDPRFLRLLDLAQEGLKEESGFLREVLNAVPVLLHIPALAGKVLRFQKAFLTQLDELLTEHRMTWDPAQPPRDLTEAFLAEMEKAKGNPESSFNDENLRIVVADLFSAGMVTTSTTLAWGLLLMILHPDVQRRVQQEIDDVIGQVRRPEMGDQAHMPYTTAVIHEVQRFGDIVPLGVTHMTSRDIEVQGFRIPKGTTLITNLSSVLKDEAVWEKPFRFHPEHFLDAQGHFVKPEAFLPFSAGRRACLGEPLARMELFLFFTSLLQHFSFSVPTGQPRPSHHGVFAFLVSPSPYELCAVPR

[34] = molecular target: Cytochrome P450 2C19 (Homo sapiens, UniProt P33261); assay: Cytochrome panel assay with activity outcomes. Panel member name: p450-cyp2c19 Compounds with AC50 equal or less than 10 uM are considered active; assay type: functional
Sequence of Cytochrome P450 2C19 (P33261 whole entry): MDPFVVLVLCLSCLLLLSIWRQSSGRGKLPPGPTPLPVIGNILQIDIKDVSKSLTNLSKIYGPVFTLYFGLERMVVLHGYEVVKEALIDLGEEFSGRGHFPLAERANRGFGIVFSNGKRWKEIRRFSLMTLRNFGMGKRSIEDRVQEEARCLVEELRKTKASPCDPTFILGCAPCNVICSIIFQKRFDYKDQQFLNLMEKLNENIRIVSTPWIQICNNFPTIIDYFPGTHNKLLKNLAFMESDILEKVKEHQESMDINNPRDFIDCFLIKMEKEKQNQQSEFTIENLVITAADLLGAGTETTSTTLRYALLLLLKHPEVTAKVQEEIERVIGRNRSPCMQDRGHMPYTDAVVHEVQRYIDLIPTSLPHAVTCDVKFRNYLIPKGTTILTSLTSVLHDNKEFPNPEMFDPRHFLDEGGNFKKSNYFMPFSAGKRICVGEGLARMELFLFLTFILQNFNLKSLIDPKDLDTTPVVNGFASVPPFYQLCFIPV

CC1CCCN(c2ccc([N+](=O)[O-])cc2C(=O)c2ccccc2)C1 (centres undefined)
inconclusive: EC50 [4] 0.657 µM
active: EC50 [1] 1.27 µM | EC50 [5] 1.29 µM | EC50 [6] 1.32 µM | EC50 [8] 0.314 µM
inactive: IC50 [2] 40.6 µM | EC50 [3] 12.2 µM | IC50 [7] > 80 µM

CCN1CCN(Cc2ccc(NC(=O)c3ccc(C)c(/C=C/c4cnc(Nc5cc(N6CCNCC6)nc(C)n5)cn4)c3)cc2C(F)(F)F)CC1
inactive: IC50 [15] > 20 µM | IC50 [17] > 20 µM | IC50 [21] > 20 µM
inconclusive: EC50 [10] 0.424 µM
active: IC50 [9] 9.4 µM | IC50 [12] 41 µM | AC50 [13] 0.725 µM | AC50 [14] 9.56 µM | CC50 [16] 21.6 µM | AC50 [18] 27.6 µM | CC50 [19] 6.89 µM | EC50 [20] 86.5 µM | AC50 [22] 1.99 µM | AC50 [23] 12.8 µM | AC50 [24] 19.6 µM | IC50 [25] 11.1 µM | EC50 [26] 6.36 µM | IC50 [27] 5.88 µM | EC50 [28] 7.23 µM
> 150 µM (not active): EC50 [11]

Cc1ccc(/N=c2\ssnc2Cl)nc1
inactive: IC50 [29] > 100 µM | IC50 [30] > 100 µM

O=C([O-])Cc1ccccc1Nc1c(Cl)cccc1Cl.[Na+] [DICLOFENAC SODIUM]
inactive: AC50 [32] | AC50 [33] | AC50 [34]
inconclusive: AC50 [31]
